Assays:
Format in all cases: in vivo
[1] = system: blackgrass (Alopecurus myosuroides); assay: Test D controlled growth environment herbicide test, pre- and postemergence
In short: (§1)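 Rating is visual, 0–100 scale (100 = complete control), made against untreated plants 14–21 d after treatment in controlled growth conditions. Postemergence sprays went onto 1- to 4-leaf plants in peat medium; preemergence sprays onto silt loam after sowing; formulation included a surfactant.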

[2] = system: deadnettle (henbit deadnettle, Lamium amplexicaule); assay: as above
In short: as §1

[3] = system: mustard, wild (wild mustard, Sinapis arvensis); assay: as above
In short: as §1

[4] = system: barley, winter (winter barley, Hordeum vulgare); assay: as above
In short: as §1

[5] = system: radish, wild (wild radish, Raphanus raphanistrum); assay: as above
In short: as §1

[6] = system: field poppy (Papaver rhoeas); assay: as above
In short: as §1

[7] = system: chamomile (scentless chamomile, Matricaria inodora); assay: as above
In short: as §1

[8] = system: lambsquarters (Chenopodium album); assay: as above
In short: as §1

[9] = system: foxtail, green (green foxtail, Setaria viridis); assay: as above
In short: as §1

[10] = system: windgrass (Apera spica-venti); assay: as above
In short: as §1

[11] = system: waterhemp_RES2 (ALS & HPPD resistant common waterhemp, Amaranthus rudis); assay: Test E greenhouse herbicide test, postemergence
In short: (§2)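 Greenhouse test, 14–21 d after postemergence treatment of 2–18 cm plants; percent control was assessed visually, 0–100, against untreated plants.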

[12] = system: waterhemp_RES1 (ALS & Triazine resistant common waterhemp, Amaranthus rudis); assay: Test E greenhouse herbicide test, postemergence
In short: as §2

[13] = Postemergence, 31 g ai/ha, scale 0 to 100 (0 no effect, 100 complete control)
[14] = Postemergence, 125 g ai/ha, visual rating on scale 0 (no effect) to 100 (complete control), 14 to 21 d
[15] = Postemergence, 250 g ai/ha, scale 0 to 100 (0 no effect, 100 complete control)
[16] = Preemergence, 62 g ai/ha, scale 0 to 100 (0 no effect, 100 complete control)
[17] = Preemergence, 125 g ai/ha, scale 0 to 100 (0 no effect, 100 complete control)
[18] = Preemergence, 250 g ai/ha, scale 0 to 100, 0 no effect, 100 complete control
[19] = postemergence, 62 g ai/ha, scale 0 to 100, 0 no effect, 100 complete control
[20] = 31 g ai/ha, visual, scale 0 no effect to 100 complete control
[21] = 62 g ai/ha, scale 0 to 100 (0 no effect, 100 complete control)
[22] = 250 g ai/ha, scale 0 to 100 (0 no effect, 100 complete control)

## Cc1cc2ccccc2c(-c2c(O)c(C)nn(C)c2=O)c1C [Compound 34]
[1]; [13]
  Blackgrass plant response rating: 25
[1]; [14]
  Plant response rating, Blackgrass: 70
[1]; [15]
  Plant response rating, Blackgrass: 75
[1]; Preemergence, 31 g ai/ha
  Plant response rating (scale of 0 to 100), Blackgrass: 15
[1]; [16]
  Plant response rating, Blackgrass: 20
[1]; [17]
  Plant response rating, Blackgrass: 40
[1]; [18]
  Blackgrass plant response rating: 65
[1]; [19]
  Plant response rating, Blackgrass: 40
[2]; [13]
  Deadnettle plant response rating: 95
[2]; [14]
  Plant response rating, Deadnettle: 100
[2]; [15]
  Plant response rating, Deadnettle: 100
[2]; Preemergence, 31 g ai/ha
  Plant response rating (scale of 0 to 100), Deadnettle: 0
[2]; [16]
  Plant response rating, Deadnettle: 40
[2]; [17]
  Plant response rating, Deadnettle: 50
[2]; [18]
  Plant response rating, Deadnettle: 95
[2]; [19]
  Plant response rating, Deadnettle: 100
[3]; [13]
  Mustard, Wild plant response rating: 80
[3]; [14]
  Plant response rating, Mustard, Wild: 100
[3]; [15]
  Plant response rating, Mustard, Wild: 100
[3]; Preemergence, 31 g ai/ha
  Plant response rating (scale of 0 to 100), Mustard, Wild: 15
[3]; [16]
  Plant response rating, Mustard, Wild: 25
[3]; [17]
  Plant response rating, Mustard, Wild: 75
[3]; [18]
  Plant response rating, Mustard, Wild: 100
[3]; [19]
  Plant response rating, Mustard, Wild: 85
[4]; [13]
  Plant response rating, Barley, Winter: 0
[4]; [14]
  Plant response rating, Barley, Winter: 0
[4]; [15]
  Plant response rating, Barley, Winter: 20
[4]; Preemergence, 31 g ai/ha
  Plant response rating (scale of 0 to 100), Barley, Winter: 0
[4]; [16]
  Plant response rating, Barley, Winter: 0
[4]; [17]
  Plant response rating, Barley, Winter: 0
[4]; [18]
  Barley, Winter plant response rating: 65
[4]; [19]
  Plant response rating, Barley, Winter: 0
[5]; [13]
  Radish, Wild plant response rating: 65
[5]; [14]
  Plant response rating, Radish, Wild: 90
[5]; [15]
  Plant response rating, Radish, Wild: 95
[5]; Preemergence, 31 g ai/ha
  Plant response rating (scale of 0 to 100), Radish, Wild: 0
[5]; [16]
  Plant response rating, Radish, Wild: 0
[5]; [17]
  Plant response rating, Radish, Wild: 60
[5]; [18]
  Plant response rating, Radish, Wild: 60
[5]; [19]
  Plant response rating, Radish, Wild: 85
[6]; [13]
  Field Poppy plant response rating: 100
[6]; [14]
  Plant response rating, Field Poppy: 100
[6]; [15]
  Plant response rating, Field Poppy: 100
[6]; [16]
  Plant response rating, Field Poppy: 100
[6]; [17]
  Plant response rating, Field Poppy: 100
[6]; [18]
  Plant response rating, Field Poppy: 100
[6]; [19]
  Plant response rating, Field Poppy: 100
[7]; [13]
  Chamomile plant response rating: 75
[7]; [14]
  Plant response rating, Chamomile: 100
[7]; [15]
  Plant response rating, Chamomile: 100
[7]; [19]
  Plant response rating, Chamomile: 80
[8]; [13]
  Lambsquarters plant response rating: 90
[8]; [14]
  Plant response rating, Lambsquarters: 100
[8]; [15]
  Plant response rating, Lambsquarters: 100
[8]; Preemergence, 31 g ai/ha
  Plant response rating (scale of 0 to 100), Lambsquarters: 60
[8]; [16]
  Plant response rating, Lambsquarters: 60
[8]; [17]
  Plant response rating, Lambsquarters: 95
[8]; [18]
  Plant response rating, Lambsquarters: 95
[8]; [19]
  Plant response rating, Lambsquarters: 95
[9]; [13]
  Foxtail, Green plant response rating: 40
[9]; [14]
  Plant response rating, Foxtail, Green: 55
[9]; [15]
  Plant response rating, Foxtail, Green: 70
[9]; Preemergence, 31 g ai/ha
  Plant response rating (scale of 0 to 100), Foxtail, Green: 55
[9]; [16]
  Plant response rating, Foxtail, Green: 60
[9]; [17]
  Plant response rating, Foxtail, Green: 60
[9]; [18]
  Plant response rating, Foxtail, Green: 75
[9]; [19]
  Plant response rating, Foxtail, Green: 45
[10]; [13]
  Windgrass plant response rating: 40
[10]; [14]
  Plant response rating, Windgrass: 65
[10]; [15]
  Plant response rating, Windgrass: 75
[10]; Preemergence, 31 g ai/ha
  Plant response rating (scale of 0 to 100), Windgrass: 15
[10]; [16]
  Plant response rating, Windgrass: 25
[10]; [17]
  Plant response rating, Windgrass: 55
[10]; [18]
  Plant response rating, Windgrass: 70
[10]; [19]
  Plant response rating, Windgrass: 50
[11]; [20]
  Plant response rating, Waterhemp_RES2: 40
[11]; [21]
  Plant response rating, Waterhemp_RES2: 80
[11]; [22]
  Plant response rating, Waterhemp_RES2: 70
[12]; [20]
  Plant response rating, Waterhemp_RES1: 90
[12]; [21]
  Plant response rating, Waterhemp_RES1: 90
[12]; 125 g ai/ha, scale 0 to 100 (0 no effect, 100 complete control)
  Plant response rating, Waterhemp_RES1: 90
[12]; [22]
  Plant response rating, Waterhemp_RES1: 95
